Measurements as given in the supplement of paper PMC10307832.

Legend:
Assay in all cases: relative viability (nuclei count vs DMSO), 5 days (fraction); higher = more cells survive
[1] = compound: CN(C)C[C@@H]1CCn2cc(c3ccccc32)C2=C(C(=O)NC2=O)c2cn(c3ccccc23)CCO1 [Ruboxistaurin] + O=C(CCCCCCC(=O)Nc1ccccc1)NO [Vorinostat] (partner 1 µM)
Outline: (§1)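 The day after seeding in 1536-well plates, lung cancer cell lines were treated by pin tool with a single drug, or with a fixed anchor-drug dose together with five library-drug doses (not always all listed) in √10 steps. After 5 days, a combined fix-and-stain solution (final 0.05% Triton X-100, 1% formaldehyde, 1 ug/ml Hoechst) was added. Nuclei counted on 4× images gave relative viability as treated counts over vehicle counts, reported as the median of duplicate plates.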

Ruboxistaurin + AZD7762 = compound: CN(C)C[C@@H]1CCn2cc(c3ccccc32)C2=C(C(=O)NC2=O)c2cn(c3ccccc23)CCO1 [Ruboxistaurin] + NC(=O)Nc1cc(-c2cccc(F)c2)sc1C(=O)N[C@H]1CCCNC1 [AZD7762] (partner 0.2 µM)
Outline: as §1

[2] = compound: CN(C)C[C@@H]1CCn2cc(c3ccccc32)C2=C(C(=O)NC2=O)c2cn(c3ccccc23)CCO1 [Ruboxistaurin] + CC(=O)Nc1cccc(-n2c(=O)n(C3CC3)c(=O)c3c(Nc4ccc(I)cc4F)n(C)c(=O)c(C)c32)c1 [Trametinib] (partner 0.02 µM)
Outline: as §1

[3] = compound: CN(C)C[C@@H]1CCn2cc(c3ccccc32)C2=C(C(=O)NC2=O)c2cn(c3ccccc23)CCO1 [Ruboxistaurin] + CCNC(=O)c1noc(-c2cc(C(C)C)c(O)cc2O)c1-c1ccc(CN2CCOCC2)cc1 [Luminespib] (partner 0.01 µM)
Outline: as §1

Ruboxistaurin + OSI-027 = compound: CN(C)C[C@@H]1CCn2cc(c3ccccc32)C2=C(C(=O)NC2=O)c2cn(c3ccccc23)CCO1 [Ruboxistaurin] + COc1cccc2cc(-c3nc([C@H]4CC[C@H](C(=O)O)CC4)n4ncnc(N)c34)[nH]c12 [OSI-027] (partner 0.5 µM)
Outline: as §1

Cell Line	relative viability ([1]; first compound 0.08 µM)	relative viability ([1]; first compound 0.8 µM)	relative viability ([1]; first compound 2.53 µM)	relative viability ([1]; first compound 8 µM)	relative viability (Ruboxistaurin + AZD7762; first compound 0.08 µM)	relative viability (Ruboxistaurin + AZD7762; first compound 0.8 µM)	relative viability (Ruboxistaurin + AZD7762; first compound 2.53 µM)	relative viability (Ruboxistaurin + AZD7762; first compound 8 µM)	relative viability ([2]; first compound 0.08 µM)	relative viability ([2]; first compound 0.8 µM)	relative viability ([2]; first compound 2.53 µM)	relative viability ([2]; first compound 8 µM)	relative viability ([3]; first compound 0.08 µM)	relative viability ([3]; first compound 0.8 µM)	relative viability ([3]; first compound 2.53 µM)	relative viability ([3]; first compound 8 µM)	relative viability (Ruboxistaurin + OSI-027; first compound 0.08 µM)	relative viability (Ruboxistaurin + OSI-027; first compound 0.8 µM)	relative viability (Ruboxistaurin + OSI-027; first compound 2.53 µM)	relative viability (Ruboxistaurin + OSI-027; first compound 8 µM)
LK-2	0.362	0.323	0.33	0.222	0.402	0.448	0.377	0.19	0.65	0.933	0.85	0.589	0.22	0.182	0.154	0.172	0.224	0.222	0.158	0.158
LOU-NH91	0.954	0.868	0.958	0.878	0.823	0.74	0.792	0.726	0.802	0.751	0.807	0.773	0.286	0.298	0.361	0.369	0.748	0.629	0.663	0.676
LU99A	0.497	0.442	0.433	0.416	0.385	0.312	0.349	0.289	0.492	0.509	0.508	0.472	0.239	0.224	0.265	0.24	0.285	0.271	0.266	0.258
LXF-289	0.858	0.787	0.777	0.918	1.12	1.03	1.07	1.17	0.653	0.631	0.66	0.684	0.679	0.628	0.677	0.754	0.804	0.74	0.9	0.623
NCI-H23	0.425	0.564	0.548	0.453	0.234	0.262	0.185	0.279	0.375	0.346	0.409	0.32	0.23	0.213	0.225	0.2	0.601	0.448	0.593	0.457
NCI-H322M	0.878	0.753	0.737	0.556	0.56	0.564	0.573	0.475	0.538	0.477	0.535	0.404	0.836	0.718	0.766	0.399	0.646	0.514	0.514	0.377
NCI-H358	0.865	0.659	0.768	0.666	0.593	0.48	0.519	0.49	0.159	0.116	0.125	0.112	0.498	0.32	0.242	0.386	0.95	0.642	0.787	0.471
NCI-H441	0.953	0.989	0.787	0.724	1.08	1.1	1.15	1.34	0.523	0.453	0.529	0.366	0.407	0.276	0.355	0.338	0.65	0.474	0.607	0.456
NCI-H460	0.859	0.651	0.711	0.316	0.652	0.669	0.751	0.574	0.225	0.113	0.14	0.13	0.0344	0.0361	0.0325	0.0312	0.604	0.557	0.501	0.217
NCI-H522	1.01	0.9	1.05	0.931	0.987	0.804	0.833	0.81	0.767	0.586	0.754	0.764	1.23	1.1	0.974	1.04	0.741	0.783	0.909	0.689
NCI-H596	0.817	0.428	0.578	0.576	1.14	0.942	0.972	0.812	0.892	0.766	0.727	0.796	0.93	0.943	1.26	0.794	0.811	0.552	0.799	0.508
NCI-H647	0.673	0.447	0.725	0.719	0.529	0.422	0.452	0.371	0.568	0.374	0.473	0.431	0.17	0.114	0.217	0.232	0.754	0.532	0.432	0.42
NCI-H650	0.456	0.383	0.454	0.717	1.09	1.06	1.06	0.953	1.1	0.914	1.01	0.952	0.841	0.7	0.875	0.938	0.662	0.49	0.584	0.523
NCI-H727	1.1	1.14	1.13	1.28	0.657	0.607	0.487	0.61	0.361	0.395	0.384	0.367	0.345		0.355	0.323	0.764	0.416	0.523	0.448
NCI-H838	0.813	0.665	0.742	0.734	0.749	0.855	0.877	0.977	0.58	0.461	0.513	0.504	0.292	0.239	0.425	0.382	0.4	0.33	0.301	0.313
NCI-H1355	0.693	0.604	0.62	0.583	0.901	0.615	0.709	0.576	0.462	0.361	0.394	0.357	0.734	0.592	0.788	0.534	0.444	0.322	0.382	0.297

Cell Line	relative viability ([1]; first compound 0.08 µM)	relative viability ([1]; first compound 0.8 µM)	relative viability ([1]; first compound 2.53 µM)	relative viability ([1]; first compound 8 µM)	relative viability (Ruboxistaurin + AZD7762; first compound 0.08 µM)	relative viability (Ruboxistaurin + AZD7762; first compound 0.8 µM)	relative viability (Ruboxistaurin + AZD7762; first compound 2.53 µM)	relative viability (Ruboxistaurin + AZD7762; first compound 8 µM)	relative viability ([2]; first compound 0.08 µM)	relative viability ([2]; first compound 0.8 µM)	relative viability ([2]; first compound 2.53 µM)	relative viability ([2]; first compound 8 µM)	relative viability ([3]; first compound 0.08 µM)	relative viability ([3]; first compound 0.8 µM)	relative viability ([3]; first compound 2.53 µM)	relative viability ([3]; first compound 8 µM)	relative viability (Ruboxistaurin + OSI-027; first compound 0.08 µM)	relative viability (Ruboxistaurin + OSI-027; first compound 0.8 µM)	relative viability (Ruboxistaurin + OSI-027; first compound 2.53 µM)	relative viability (Ruboxistaurin + OSI-027; first compound 8 µM)
NCI-H1395	0.813	0.739	0.707	0.688	0.41	0.411	0.419	0.418	1.15	0.846	0.988	1.09	0.918	0.66	0.769	0.488	0.653	0.647	0.662	0.597
NCI-H1437	0.834	0.724	0.825	0.798	1.18	1.06	1.16	1.17	0.517	0.526	0.577	0.477	1.17	1.1	1.17	1.22	0.985	0.793	0.835	0.804
NCI-H1651	0.54	0.573	0.611	0.499	0.495	0.476	0.45	0.421	0.891	0.736	0.805	0.858	1.06	0.835	0.899	0.901	0.779	0.611	0.653	0.566
NCI-H1666	0.998	1.1	1.08	1.1	0.855	0.992	0.921	0.892	0.903	0.795	0.865	0.877	1.03	0.964	1.03	1.08	0.885	0.785	0.929	0.759
NCI-H1734	0.861	0.714	0.815	0.624	0.619	0.503	0.574	0.473	0.724	0.613	0.691	0.58	0.174	0.161	0.179	0.178	0.628	0.411	0.56	0.385
NCI-H1755	0.702	0.849	0.856	0.811	0.417	0.483	0.419	0.525	0.804	0.713	0.744	0.771	0.511	0.328	0.417	0.406	0.714	0.621	0.614	0.549
NCI-H1793	0.87		1.08	0.821	0.654		0.476	0.339	0.444		0.497	0.517	0.148	0.152	0.172	0.188	0.262	0.239	0.273	0.265
NCI-H1915	0.473	0.526	0.513	0.464	0.705	0.62	0.716	0.689	0.324	0.292	0.303	0.285	0.765	0.638	0.72	0.565	0.645	0.489	0.505	0.363
NCI-H1944	0.552	0.552	0.558	0.427	0.477	0.544	0.524	0.492	0.402	0.312	0.395	0.358	0.406	0.632	0.72	0.726	0.411	0.334	0.404	0.271
NCI-H1975	0.802	0.696	0.698	0.682	0.784	0.639	0.686	0.601	0.573	0.336	0.416	0.331	0.266	0.0934	0.223	0.209	0.751	0.578	0.645	0.502
NCI-H1993	0.856	0.711	0.727	0.542	0.958	0.57	0.93	0.296	0.486	0.43	0.51	0.467	1.06	0.599	0.926	0.887	0.6	0.479	0.543	0.531
NCI-H2085	0.914	0.82	0.842	0.815	1.05	0.957	1.14	0.981	0.67	0.538	0.64	0.502	0.53	0.4	0.49	0.42	0.731	0.521	0.791	0.446
NCI-H2087	0.977	0.672	0.723	0.975	1.46	1.17	1.38	1.44	0.202	0.135	0.205	0.186	0.175	0.215	0.162	0.156	0.627	0.492	0.449	0.309
NCI-H2126	0.844	0.636	0.871	0.621	1.03	0.91	0.981	0.962	0.617	0.552	0.617	0.541	0.961	0.893	0.983	0.893	0.811	0.638	0.776	0.639
NCI-H2170	0.856	0.775	0.854	0.855	0.901	0.783	0.95	0.964	0.932	0.828	0.931	0.928	0.779	0.649	0.758	0.522	0.736	0.599	0.67	0.536
